Laboratory results from article PMC4169639 (BMC Biology, 2014).

Columns and labels:
[1] = molecular target: T1, PCTP START domain (GSV-PCTP) (Homo sapiens, UniProt Q9UKL6); test: IgG-bead immunoisolation from yeast lysate, LC-MS of bound metabolites; type: binding; conditions: endogenous yeast metabolite, enriched over GV control
T1 sequence (Q9UKL6 1-212 limits assumed): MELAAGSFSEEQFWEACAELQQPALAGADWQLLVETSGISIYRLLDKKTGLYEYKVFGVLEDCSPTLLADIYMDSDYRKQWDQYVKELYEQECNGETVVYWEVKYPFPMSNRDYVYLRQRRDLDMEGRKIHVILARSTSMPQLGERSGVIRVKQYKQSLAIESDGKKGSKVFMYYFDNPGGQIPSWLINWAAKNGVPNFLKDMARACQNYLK

[2] = molecular target: T2, StAR START domain (GSV-StAR) (Mus musculus, UniProt P51557); test: as above; type: binding; conditions: endogenous yeast metabolite, enriched over GV control
T2 sequence (P51557 66-274 limits assumed): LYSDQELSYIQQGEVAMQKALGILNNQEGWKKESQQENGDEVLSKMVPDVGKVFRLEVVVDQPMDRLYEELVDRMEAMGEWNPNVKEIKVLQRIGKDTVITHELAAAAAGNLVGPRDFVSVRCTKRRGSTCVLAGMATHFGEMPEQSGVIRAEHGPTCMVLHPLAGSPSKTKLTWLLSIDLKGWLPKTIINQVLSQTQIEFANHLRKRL

## CC(C)=CCC[C@@H](C)[C@H]1CC[C@@]2(C)C3=C(CC[C@]12C)[C@@]1(C)CC[C@H](O)C(C)(C)[C@@H]1CC3 [lanosterol]
[1]
  IgG-bead immunoisolation from yeast lysate, LC-MS of bound metabolites: several metabolites that were shared with StAR (e.g. lanosterol, squalene
[2]
  IgG-bead immunoisolation from yeast lysate, LC-MS of bound metabolites: lanosterol and squalene, were also significantly enriched for the START domain from StAR

## CCCCC/C=C\C/C=C\CCCCCCCC(N)=O [linoleamide]
[1]
  IgG-bead immunoisolation from yeast lysate, LC-MS of bound metabolites: lipids including sphinganine, sphingosine, behenic acid and linoleamide

## CC(C)=CCC/C(C)=C/CC/C(C)=C/CC/C=C(\C)CC/C=C(\C)CCC=C(C)C [squalene]
[1]
  IgG-bead immunoisolation from yeast lysate, LC-MS of bound metabolites: several metabolites that were shared with StAR (e.g. lanosterol, squalene
[2]
  IgG-bead immunoisolation from yeast lysate, LC-MS of bound metabolites: lanosterol and squalene, were also significantly enriched for the START domain from StAR
